In ChEMBL document CHEMBL4699668, “Discovery and Structure-Activity Relationships of Novel Template, Truncated 1'-Homologated Adenosine Derivatives as Pure Dual PPARγ/δ Modulators” (J Med Chem, 2020):
pKi: −log10 of the molar value.

Tests used:
[1] = biological target: T1, Peroxisome proliferator-activated receptor gamma (Homo sapiens, UniProt P37231)
T1 sequence (P37231 whole entry): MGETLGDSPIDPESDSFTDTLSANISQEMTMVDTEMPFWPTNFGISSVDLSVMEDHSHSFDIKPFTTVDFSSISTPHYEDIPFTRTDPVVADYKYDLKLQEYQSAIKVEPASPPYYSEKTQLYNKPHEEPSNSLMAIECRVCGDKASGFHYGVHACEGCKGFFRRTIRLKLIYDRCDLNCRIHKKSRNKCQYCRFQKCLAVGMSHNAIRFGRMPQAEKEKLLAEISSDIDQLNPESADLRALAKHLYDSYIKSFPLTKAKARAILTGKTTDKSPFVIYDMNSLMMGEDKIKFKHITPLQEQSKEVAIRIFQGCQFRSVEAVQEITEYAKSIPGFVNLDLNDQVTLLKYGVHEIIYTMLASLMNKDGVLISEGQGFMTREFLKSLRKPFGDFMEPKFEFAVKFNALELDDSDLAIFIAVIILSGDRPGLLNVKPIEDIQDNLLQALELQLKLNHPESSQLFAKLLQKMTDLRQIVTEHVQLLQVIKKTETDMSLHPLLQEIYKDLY
Description: Binding affinity to PPAR-gamma (unknown origin) by TR-FRET assay

[2] = biological target: T2, Peroxisome proliferator-activated receptor delta (Homo sapiens, UniProt Q03181)
T2 sequence (Q03181 whole entry): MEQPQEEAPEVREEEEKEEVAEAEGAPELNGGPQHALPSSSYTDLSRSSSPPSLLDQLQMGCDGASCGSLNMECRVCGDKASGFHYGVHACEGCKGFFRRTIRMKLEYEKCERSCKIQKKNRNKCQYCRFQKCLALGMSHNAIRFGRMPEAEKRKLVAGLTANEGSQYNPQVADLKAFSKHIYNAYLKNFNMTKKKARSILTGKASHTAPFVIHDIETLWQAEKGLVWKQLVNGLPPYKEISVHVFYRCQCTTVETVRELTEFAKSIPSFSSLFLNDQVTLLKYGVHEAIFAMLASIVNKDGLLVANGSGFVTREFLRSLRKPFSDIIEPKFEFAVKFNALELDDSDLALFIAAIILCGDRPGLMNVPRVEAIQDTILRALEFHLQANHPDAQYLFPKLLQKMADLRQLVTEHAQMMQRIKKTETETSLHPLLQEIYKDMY
Description: Binding affinity to PPAR-delta (unknown origin) by TR-FRET assay

SMILES	pKi [1]	pKi [2]
O[C@@H]1[C@H](O)CS[C@H]1Cn1cnc2c(NCc3cccc(F)c3)nc(Cl)nc21	5.41	5.72
O[C@@H]1[C@H](O)CS[C@H]1Cn1cnc2c(NCc3cccc(Br)c3)nc(Cl)nc21	5.39	6.23
O[C@@H]1[C@H](O)CS[C@H]1n1cnc2c(NCc3cccc(I)c3)nc(Cl)nc21		7.97
CC#Cc1nc(NCc2cccc(I)c2)c2ncn(C[C@@H]3SC[C@@H](O)[C@H]3O)c2n1	5.14	
O[C@@H]1[C@H](O)CO[C@H]1Cn1cnc2c(NCc3cccc(Br)c3)nc(Cl)nc21	5.02	5.84
CC#Cc1nc(NCc2cccc(F)c2)c2ncn(C[C@@H]3SC[C@@H](O)[C@H]3O)c2n1	5.12	
CC#Cc1nc(NCc2cccc(Br)c2)c2ncn(C[C@@H]3SC[C@@H](O)[C@H]3O)c2n1	5.15	
O[C@@H]1[C@H](O)CO[C@H]1Cn1cnc2c(NCc3cccc(Cl)c3)nc(Cl)nc21	5.12	6.30
